Key:
Rab27a [1] = test: Expression of melanin production-associated proteins (immunoblotting), Rab27a; assay type: cell-based, mouse; details: B16F10 cells, 200 ng/mL α-MSH, peptide 1-160 μM, 72 hours, FIG. 4
Procedure: (§1) In detail, a mouse melanoma cell B16F10 was seeded in a 6-well plate at a density of 5×10^4 cells/well, followed by incubation for 16 hours. Thereafter, the culture medium was replaced by a medium supplemented with 2% (v/v) serum, and then 200 ng/mL of α-MSH was added thereto. Together therewith, the peptide composed of the amino acid sequence of SEQ ID NO: 1 was added at a concentration of 1 μM, 10 μM, 20 μM, 40 μM, 60 μM, 80 μM or 160 μM, respectively, followed by incubation for 72 hours. Thereafter, the cultured cells were lysed, and then subjected to immunoblotting using antibodies (all available from santacruz biotechnology, USA) against Mlph, Rab27a, tyrosinase (TYR), or MITF. In addition, a control, a negative control, and a positive control were used in the same manner as in Example 2.(1).

MITF [2] = test: Expression of melanin production-associated genes (RT-PCR), MITF; assay type: cell-based, mouse; details: B16F10 cells, 200 ng/mL α-MSH, peptide 1-160 μM, 72 hours, FIG. 3
Procedure: (§2) In detail, a mouse melanoma cell B16F10 was seeded in a 6-well plate at a density of 5×10^4 cells/well, followed by incubation for 16 hours. Thereafter, the culture medium was replaced by a medium supplemented with 2% (v/v) serum, and then 200 ng/mL of α-MSH was added thereto. Together therewith, the peptide composed of the amino acid sequence of SEQ ID NO: 1 was added at a concentration of 1 μM, 10 μM, 20 μM, 40 μM, 60 μM, 80 μM or 160 μM, respectively, followed by incubation for 72 hours. mRNAs were extracted from the cultured cells, and the extracted mRNAs were reverse transcribed using a cDNA synthesis kit & PCR pre-mix (Intron, Korea), thereby synthesizing cDNA, respectively. Thereafter, a polymerase chain reaction (PCR) was carried out using each cDNA and Rab27a, Melanophilin (Mlph), myosin VA, MITF, tyrosinase, or TRP1 primer pairs. Moreover, a control, a negative control, and a positive control were used in the same manner as in Example 2.(1), and nucleotide sequences of the primers used herein are as in Table 3 below.

myosin VA = test: Expression of melanin production-associated genes (RT-PCR), myosin VA; assay type: cell-based, mouse; details: B16F10 cells, 200 ng/mL α-MSH, peptide 1-160 μM, 72 hours, FIG. 3
Procedure: as §2

tyrosinase [3] = molecular target: T1, tyrosinase (Mus musculus, UniProt P11344); test: Inhibitory effect on tyrosinase activity in α-MSH-stimulated B16F10 cells (L-DOPA, cell lysate); assay type: cell-based; details: 200 ng/mL α-MSH, peptide 1-160 μM, 72 hours, FIG. 2
T1 construct: the cells were lysed by adding 0.1 M sodium phosphate buffer (pH 6.8, lysis buffer) containing 1% (v/v) triton X-100; endogenous in cells; host or cells: B16F10 mouse melanoma cells, stimulated with alpha-MSH
T1 sequence (P11344 19-533): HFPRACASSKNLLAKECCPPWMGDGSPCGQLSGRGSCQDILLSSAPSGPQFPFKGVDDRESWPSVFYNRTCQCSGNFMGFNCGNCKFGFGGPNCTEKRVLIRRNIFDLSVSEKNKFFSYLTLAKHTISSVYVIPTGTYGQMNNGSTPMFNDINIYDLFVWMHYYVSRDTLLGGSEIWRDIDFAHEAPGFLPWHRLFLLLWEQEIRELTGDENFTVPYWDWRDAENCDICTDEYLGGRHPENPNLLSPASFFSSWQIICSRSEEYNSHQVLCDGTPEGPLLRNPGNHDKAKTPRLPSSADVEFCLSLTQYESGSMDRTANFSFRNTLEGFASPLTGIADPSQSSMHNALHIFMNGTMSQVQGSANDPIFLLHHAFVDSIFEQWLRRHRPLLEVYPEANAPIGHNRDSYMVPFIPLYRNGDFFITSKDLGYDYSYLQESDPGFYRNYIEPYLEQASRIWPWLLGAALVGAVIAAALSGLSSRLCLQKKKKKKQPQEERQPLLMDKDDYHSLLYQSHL
Procedure: In detail, a mouse melanoma cell B16F10 was seeded in a 6-well plate at a density of 5×10^4 cells/well, followed by incubation for 16 hours. Thereafter, the culture medium was replaced by a medium supplemented with 2% (v/v) serum, and then 200 ng/mL of α-MSH was added thereto. Together therewith, the peptide composed of the amino acid sequence of SEQ ID NO: 1 was added at a concentration of 1 μM, 10 μM, 20 μM, 40 μM, 60 μM, 80 μM or 160 μM, respectively, followed by incubation for 72 hours. The 6-well plate was placed on ice, and then washed with cold PBS twice. Thereafter, the cells were lysed by adding 0.1 M sodium phosphate buffer (pH 6.8, lysis buffer) containing 1% (v/v) triton X-100. Thereafter, the cells in the well plate were scraped using a scraper, and collected in a 1.5 mL tube. The collected cells were vortexed, and centrifuged at 15,000 rpm for 10 minutes to obtain a supernatant. Thereafter, proteins in the supernatant were quantified to adjust the protein content at a predetermined amount. A buffer was added thereto, and 90 μL total of the sample was dispensed in a 96-well plate.
Thereafter, 20 μL of 10 mM L-DOPA was added to each sample, and incubated at 37° C. for 1 hour. Then, absorbance at 475 nm was measured. […] From absorbance at […], the tyrosinase activity (fold) was determined.

TRP1 = test: Expression of melanin production-associated genes (RT-PCR), TRP1; assay type: cell-based, mouse; details: B16F10 cells, 200 ng/mL α-MSH, peptide 1-160 μM, 72 hours, FIG. 3
Procedure: as §2

tyrosinase (TYR) = test: Expression of melanin production-associated proteins (immunoblotting), TYR; assay type: cell-based, mouse; details: B16F10 cells, 200 ng/mL α-MSH, peptide 1-160 μM, 72 hours, FIG. 4
Procedure: as §1

MITF [4] = test: Expression of melanin production-associated proteins (immunoblotting), MITF; assay type: cell-based, mouse; details: B16F10 cells, 200 ng/mL α-MSH, peptide 1-160 μM, 72 hours, FIG. 4
Procedure: as §1

Mlph = test: Expression of melanin production-associated proteins (immunoblotting), Mlph; assay type: cell-based, mouse; details: B16F10 cells, 200 ng/mL α-MSH, peptide 1-160 μM, 72 hours, FIG. 4
Procedure: as §1

tyrosinase [5] = test: Expression of melanin production-associated genes (RT-PCR), tyrosinase; assay type: cell-based, mouse; details: B16F10 cells, 200 ng/mL α-MSH, peptide 1-160 μM, 72 hours, FIG. 3
Procedure: as §2

Rab27a [6] = test: Expression of melanin production-associated genes (RT-PCR), Rab27a; assay type: cell-based, mouse; details: B16F10 cells, 200 ng/mL α-MSH, peptide 1-160 μM, 72 hours, FIG. 3
Procedure: as §2

Melanophilin (Mlph) = test: Expression of melanin production-associated genes (RT-PCR), Mlph; assay type: cell-based, mouse; details: B16F10 cells, 200 ng/mL α-MSH, peptide 1-160 μM, 72 hours, FIG. 3
Procedure: as §2

B16F10 cells = test: Inhibitory effect on melanin production in α-MSH-stimulated B16F10 cells; assay type: cell-based, mouse; details: 200 ng/mL α-MSH, peptide 10, 50, 100 or 200 μM, 72 hours, FIG. 1
Procedure: A mouse melanoma cell B16F10 was seeded in a 6-well plate at a density of 5×10^4 cells/well, followed by incubation for 16 hours. Thereafter, the culture medium was replaced by a medium supplemented with 2% (v/v) serum, and then 200 ng/mL of α-melanocyte-stimulating hormones (α-MSH) was added thereto to stimulate melanin production, together with each peptide of an amino acid sequence of SEQ ID NO: 1, at a concentration of 10 μM, 50 μM, 100 μM, or 200 μM, respectively, followed by incubation for 72 hours. Thereafter, the incubated cells were dissolved in 1 N NaOH, and absorbance at 450 nm was measured. In addition, an untreated group (Con) was used as a control, and only an α-MSH-treated group as a negative control and 200 μM or 500 μM of arbutin-, which is a known skin-whitening agent, and α-MSH-treated group as a positive control were used.
From absorbance at 450 nm, the content of melanin (%) produced by B16F10 cells was determined.

tyrosinase activity (tyrosinase [3]): inhibited
expression of TYR protein (tyrosinase (TYR)): inhibited
expression of tyrosinase gene (tyrosinase [5]): inhibited
Substance: PNRYP [SEQ ID NO: 1]
expression of Rab27a protein (Rab27a [1]): inhibited
expression of MITF gene (MITF [2]): inhibited
expression of myosin VA gene (myosin VA): inhibited
expression of TRP1 gene (TRP1): inhibited
expression of MITF protein (MITF [4]): inhibited
expression of Mlph protein (Mlph): inhibited
expression of Rab27a gene (Rab27a [6]): inhibited
expression of Mlph gene (Melanophilin (Mlph)): inhibited
melanin production (B16F10 cells): reduced in a concentration-dependent manner

From patent publication US11453700B2, “Peptide having activities of skin whitening and uses thereof” (CAREGEN CO., LTD., priority 2019, dated 2022)
